Results as given in publication PMC8276018, “The Prostacyclin Analogue, Treprostinil, Used in the Treatment of Pulmonary Arterial Hypertension, is a Potent Antagonist of TREK-1 and TREK-2 Potassium Channels” (Frontiers in Pharmacology, 2021).
Positions count from the first letter of the chain named.

Columns and labels:
Assay type in all cases: cell-based
[1] = molecular target: T1, TREK-1 (Homo sapiens, UniProt O95069); assay: whole-cell patch-clamp, current activation at […]; conditions: read-out: % current enhancement at 1 μM
T1 construct: gene KCNK2; NP_055032.1, wild type, expressed in tsA201 cells
T1 sequence (O95069 1-426): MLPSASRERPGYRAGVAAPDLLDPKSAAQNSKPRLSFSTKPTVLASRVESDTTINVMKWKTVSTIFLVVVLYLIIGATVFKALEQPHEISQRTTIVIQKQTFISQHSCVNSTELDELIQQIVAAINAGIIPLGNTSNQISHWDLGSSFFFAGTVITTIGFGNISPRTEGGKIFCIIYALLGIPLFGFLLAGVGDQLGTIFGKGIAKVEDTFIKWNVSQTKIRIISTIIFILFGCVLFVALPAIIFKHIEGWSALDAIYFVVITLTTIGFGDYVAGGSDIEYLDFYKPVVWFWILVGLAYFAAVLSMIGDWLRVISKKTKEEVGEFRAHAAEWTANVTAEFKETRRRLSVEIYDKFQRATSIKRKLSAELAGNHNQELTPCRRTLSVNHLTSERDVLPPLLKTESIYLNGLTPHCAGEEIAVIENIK

[2] = molecular target: T2, TREK-2 (Homo sapiens, UniProt P57789); assay: whole-cell patch-clamp, current activation at […]; conditions: read-out: % current enhancement at 1 μM
T2 construct: gene KCNK10; NP_612190.1, wild type, expressed in tsA201 cells
T2 sequence (P57789 1-538): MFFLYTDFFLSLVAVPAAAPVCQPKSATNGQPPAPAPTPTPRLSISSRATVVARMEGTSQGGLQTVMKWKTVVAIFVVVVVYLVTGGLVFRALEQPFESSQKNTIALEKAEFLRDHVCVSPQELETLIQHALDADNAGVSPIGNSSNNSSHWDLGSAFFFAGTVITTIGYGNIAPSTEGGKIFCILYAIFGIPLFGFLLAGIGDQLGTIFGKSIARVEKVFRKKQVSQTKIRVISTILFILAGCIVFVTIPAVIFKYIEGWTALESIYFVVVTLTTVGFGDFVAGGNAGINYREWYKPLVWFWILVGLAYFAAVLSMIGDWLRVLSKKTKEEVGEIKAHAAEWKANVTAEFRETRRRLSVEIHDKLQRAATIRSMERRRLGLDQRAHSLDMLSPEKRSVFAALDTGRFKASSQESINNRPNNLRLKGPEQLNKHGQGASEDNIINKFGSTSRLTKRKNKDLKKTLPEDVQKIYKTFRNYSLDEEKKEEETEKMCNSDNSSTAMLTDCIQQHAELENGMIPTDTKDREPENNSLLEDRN

[3] = molecular target: T2, TREK-2; assay: whole-cell patch-clamp, concentration-response
[4] = molecular target: T3, TREK-2 (Homo sapiens, UniProt P57789, L315A); assay: whole-cell patch-clamp, […]
T3 construct: gene KCNK10; homodimeric mutant channel in tsA201 cells
T3 sequence (P57789 1-538 L315A): T2 sequence (P57789 1-538) with L315A

[5] = molecular target: T4, TREK-1 (Homo sapiens, UniProt O95069, Y299A); assay: whole-cell patch-clamp, […]
T4 construct: gene KCNK2; homodimeric mutant channel in tsA201 cells
T4 sequence (O95069 1-411 isoform O95069-2 Y284A): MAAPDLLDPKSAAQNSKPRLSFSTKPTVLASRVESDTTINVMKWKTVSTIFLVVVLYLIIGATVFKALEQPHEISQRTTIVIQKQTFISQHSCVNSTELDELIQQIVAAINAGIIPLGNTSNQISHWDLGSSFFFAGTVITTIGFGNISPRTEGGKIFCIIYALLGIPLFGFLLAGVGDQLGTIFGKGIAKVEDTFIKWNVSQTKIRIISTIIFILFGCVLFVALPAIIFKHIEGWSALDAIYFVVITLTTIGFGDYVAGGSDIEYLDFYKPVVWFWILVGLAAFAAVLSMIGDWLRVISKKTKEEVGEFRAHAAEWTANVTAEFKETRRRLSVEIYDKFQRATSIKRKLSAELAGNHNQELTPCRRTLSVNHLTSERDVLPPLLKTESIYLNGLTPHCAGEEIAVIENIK

[6] = molecular target: T5, TREK-1 (Homo sapiens, UniProt O95069, L304A); assay: whole-cell patch-clamp, […]
T5 construct: gene KCNK2; homodimeric mutant channel in tsA201 cells
T5 sequence (O95069 1-411 isoform O95069-2 L289A): T4 sequence (O95069 1-411 isoform O95069-2 Y284A) with A284Y, L289A

[7] = molecular target: T6, TREK-1 (Homo sapiens, UniProt O95069, L117A); assay: whole-cell patch-clamp, […]
T6 construct: gene KCNK2; homodimeric mutant channel in tsA201 cells
T6 sequence (O95069 16-426 L117A): T4 sequence (O95069 1-411 isoform O95069-2 Y284A) with M1V, L102A, A284Y

[8] = molecular target: T7, TREK-1 (Homo sapiens, UniProt O95069, Q91A); assay: whole-cell patch-clamp, […]
T7 construct: gene KCNK2; homodimeric mutant channel in tsA201 cells
T7 sequence (O95069 1-411 isoform O95069-2 Q76A): T4 sequence (O95069 1-411 isoform O95069-2 Y284A) with Q76A, A284Y

[9] = molecular target: T1, TREK-1; assay: whole-cell patch-clamp, concentration-response
[10] = molecular target: T8, TREK-1 (Homo sapiens, UniProt O95069, I95A); assay: whole-cell patch-clamp, […]
T8 construct: gene KCNK2; homodimeric mutant channel in tsA201 cells
T8 sequence (O95069 1-411 isoform O95069-2 I80A): T4 sequence (O95069 1-411 isoform O95069-2 Y284A) with I80A, A284Y

SMILES: c1ccc(-c2nn[nH]n2)c(Nc2cccc3c2CCCC3)c1 [BL-1249]
- activation at 1 µM [1]: 144%
- activation at 1 µM [2]: 192%

SMILES: CCCCC[C@H](O)CC[C@@H]1[C@H]2Cc3cccc(OCC(=O)O)c3C[C@H]2C[C@H]1O [treprostinil]
- IC50 [3]: 40 nM
- inhibition at 1 µM [4]: 74%
- inhibition at 1 µM [5]: 58%
- inhibition at 1 µM [6]: 72%
- inhibition at 1 µM [7]: 88%
- inhibition at 1 µM [8]: 89%
- IC50 [9]: 30 nM
- inhibition at 1 µM [10]: 78.2%
